Results published in the OligoGym collection.
Several values for one entry are separate records, joined by “and”; a condition that tells them apart may be missing. Equal entries are not always repeated. After the bases stand the sugars from the 5' end (letter, count) and the backbone: PS all phosphorothioate, else s phosphorothioate and o phosphodiester by linkage. Methylation of C is not given here. e = 2'-O-(2-methoxyethyl) (MOE); d = 2'-deoxy (DNA)

Target: DGAT2
Details: ASO

Sequence | target mRNA inhibition (HepG2, 2.5 µM) | target mRNA inhibition (HepG2, 10 µM) | target mRNA inhibition (HepG2, 0.12 µM) | target mRNA inhibition (HepG2, 20 µM)
TCATACTTACTGTTCAGCAG (sugars e5 d10 e5, PS) | 74% and 65% | 93% and 89% |  | 
GTTCCTGGTGGTCAGCAGGT (sugars e5 d10 e5, PS) |  |  | 63% | 
ATCCAGAGACTGAATTCTAG (sugars e5 d10 e5, PS) | 61% | 88% |  | 
ATGCCAATGCCTAGGTCACA (sugars e5 d10 e5, PS) | 78% | 91% |  | 
GACAGGACCCACTGGAGCAC (sugars e2 d13 e5, PS) |  |  | 73% | 
GAGCTCAGAGACTCAGCCGC (sugars e2 d13 e5, PS) | 27% | 42% | 89% | 61%
TAACCCACAGACACCCATGA (sugars e5 d10 e5, PS) |  |  | 14% | 
CAGCTAATGATACAAGGTTG (sugars e5 d10 e5, PS) |  |  | 55% | 
GGTAAGGCCGTATGCCTGGG (sugars e2 d13 e5, PS) |  |  | 53% | 
GCCAGGTAAGGCCGTATGCC (sugars e2 d13 e5, PS) |  |  | 66% | 
CAAGGCTGAGTCTGTGCTGC (sugars e5 d10 e5, PS) |  |  | 24% | 
GTTTGCTCAGTTCTTCCAAC (sugars e5 d10 e5, PS) | 83% and 78% | 94% and 90% |  | 
AGACATCAGGTACTCCCTCA (sugars e5 d10 e5, PS) |  |  | 35% | 
GCACTGCAGGCCACTCCCAG (sugars e5 d10 e5, PS) |  |  | 37% | 
ATCACTTGCTTGAGGTCAGG (sugars e5 d10 e5, PS) | 70% | 90% |  | 
ACACCAGGATCTCAGTCACT (sugars e5 d10 e5, PS) |  |  | 42% | 
AGCACTGACATGGTAAGTCC (sugars e5 d10 e5, PS) | 75% and 68% | 93% and 91% |  | 
CAGGACCCACTGGAGCACTG (sugars e3 d14 e3, PS) |  |  | 71% | 
GCAATGCCAATGCCTAG (sugars e3 d10 e4, PS) | 69% and 80% | 78% and 87% |  | 
GTCTGTGCTGCATCCATGTC (sugars e5 d10 e5, PS) | 41% and 50% | 74% |  | 
TCAGAGACTCAGCCGCACCC (sugars e5 d10 e5, PS) |  |  | 43% and 55% | 
TCTTCTGGACCCATCGGCCC (sugars e5 d10 e5, PS) |  |  | 37% | 
AAGGGTATTCTGCTCATAAA (sugars e5 d10 e5, PS) | 48% | 88% |  | 

Sequence | target mRNA inhibition (HepG2, 2.5 µM) | target mRNA inhibition (HepG2, 10 µM) | target mRNA inhibition (HepG2, 0.12 µM) | target mRNA inhibition (HepG2, 20 µM)
TTCTGGACCCATCGGCCCCA (sugars e5 d10 e5, PS) |  |  | 27% | 
CTTGCTCACTTCTGTGGCCT (sugars e5 d10 e5, PS) |  |  | 48% | 
ACTTTTTCCTTCTTAAAAAA (sugars e5 d10 e5, PS) |  |  | 0% | 
AATGTCACAAGTTCACAAAC (sugars e5 d10 e5, PS) |  |  | 4% | 
CTTCTTGCTCACTTCTGTGG (sugars e5 d10 e5, PS) |  |  | 25% | 
CGCGCAGGACCCCGGAGTAG (sugars e3 d14 e3, PS) |  |  | 69% | 
GCCACAGGGCCCTTTCCAGA (sugars e5 d10 e5, PS) | 68% | 92% |  | 
TGCAGCCTACAAGAGCCTGT (sugars e5 d10 e5, PS) | 54% | 90% |  | 
CTGCGCGATTCACTGAGGAC (sugars e5 d10 e5, PS) | 78% | 71% |  | 
GTTCTTTTGGAAGGGTGGAG (sugars e5 d10 e5, PS) |  |  | 52% | 
GTCATACTTACTGTTCAGCA (sugars e5 d10 e5, PS) | 78% and 65% | 94% and 91% |  | 
AAGGACAGAGGTTCAACATC (sugars e5 d10 e5, PS) | 7% | 67% |  | 
GCAATGTTGCCATCATA (sugars e3 d10 e4, PS) | 69% and 76% | 90% and 95% |  | 
AACCCACAGACACCCATGAC (sugars e5 d10 e5, PS) |  |  | 4% | 
AGGGCACCAGCCCCCAGGTG (sugars e5 d10 e5, PS) |  |  | 29% | 
CAAGGATGACCTTGGGTCAG (sugars e5 d10 e5, PS) | 18% | 44% |  | 
CCCCCATCCTCATCCTGGAG (sugars e5 d10 e5, PS) |  |  | 7% | 
AATTTCTTTTAAATAACCCA (sugars e5 d10 e5, PS) |  |  | 0% | 
CAGGCATGGAGCTCAGAGAC (sugars e5 d10 e5, PS) |  |  | 57% | 
GTTGGTCTTTTTGGCTGCCC (sugars e5 d10 e5, PS) | 77% and 67% | 88% and 86% |  | 
ATGGAGTGACAGGGCAGGAA (sugars e5 d10 e5, PS) |  |  | 59% | 
GCGCAGGACCCCGGAGTAGG (sugars e3 d14 e3, PS) |  |  | 71% | 
CACAATGGGAATGGTATCGC (sugars e5 d10 e5, PS) | 59% | 91% |  | 

Sequence | target mRNA inhibition (HepG2, 2.5 µM) | target mRNA inhibition (HepG2, 10 µM) | target mRNA inhibition (HepG2, 0.12 µM) | target mRNA inhibition (HepG2, 20 µM)
TTATAATTTCTTTTAAATAA (sugars e5 d10 e5, PS) |  |  | 0% | 
TCTTTTAAATAACCCACAGA (sugars e5 d10 e5, PS) |  |  | 10% | 
GGGTCATTTTGGAGACCACA (sugars e5 d10 e5, PS) | 59% | 83% |  | 
ACTCAAAAATATACATGCTC (sugars e5 d10 e5, PS) | 67% | 92% |  | 
GCTTTAATCCAGGATTGTCA (sugars e5 d10 e5, PS) | 73% and 76% and 82% | 91% and 88% and 93% |  | 
AATAACCCACAGACACCCAT (sugars e5 d10 e5, PS) |  |  | 0% | 
CCTCTTAGAAGTAATGCTTC (sugars e5 d10 e5, PS) | 83% and 78% | 92% and 90% |  | 
GTGGGAAAGGCACAGGCTTT (sugars e5 d10 e5, PS) |  |  | 53% | 
ACAACAGCAAATATACACCA (sugars e5 d10 e5, PS) | 87% | 56% |  | 
GTCAAACACCAGCCAAGTGA (sugars e5 d10 e5, PS) |  |  | 15% | 
AGTTTCACAAAGCCCTTGCG (sugars e5 d10 e5, PS) |  |  | 25% | 
GAACTTCTTCTGGACCCATC (sugars e5 d10 e5, PS) |  |  | 19% | 
TCTTGTGCTTGTCGAAGAGC (sugars e5 d10 e5, PS) |  |  | 62% | 
GCTAGAGGCTGAGTTCTGCT (sugars e5 d10 e5, PS) | 85% and 87% | 90% and 92% |  | 
GCTGTGATGACTTCCCAGGG (sugars e5 d10 e5, PS) | 75% | 86% |  | 
CAAACAGATTAAAGTTGCTC (sugars e5 d10 e5, PS) | 78% and 72% | 90% and 91% |  | 
GGTTCCGCAGGGTGACTGCA (sugars e5 d10 e5, PS) | 48% | 68% |  | 
GAGAAGAGGTCCTGGAGGGC (sugars e5 d10 e5, PS) |  |  | 10% | 
GTTTAGGCTATGGTCTGAGC (sugars e5 d10 e5, PS) | 85% and 75% | 92% |  | 
GCTATTCATTTTTCTGAGCC (sugars e5 d10 e5, PS) |  |  | 47% | 
CTCTGCGCGATTCACTGAGG (sugars e5 d10 e5, PS) | 53% | 86% |  | 
TCACCAGCTGGATGGGAAAG (sugars e5 d10 e5, PS) |  |  | 22% | 
AACTTAGGCATGCTTCCTCC (sugars e5 d10 e5, PS) | 44% | 89% |  | 

Sequence | target mRNA inhibition (HepG2, 2.5 µM) | target mRNA inhibition (HepG2, 10 µM) | target mRNA inhibition (HepG2, 0.12 µM) | target mRNA inhibition (HepG2, 20 µM)
TCCCCTTGGCAGAGAAACTG (sugars e5 d10 e5, PS) |  |  | 47% | 
CACTGGAGCACTGAGATGAC (sugars e3 d14 e3, PS) |  |  | 55% | 
AGGTAAGGCCGTATGCCTGG (sugars e3 d14 e3, PS) |  |  | 67% | 
CAGGGTCCTCTCCGCTGCCT (sugars e5 d10 e5, PS) | 78% and 80% | 85% and 87% |  | 
AGGAAGGAAATGCTAGGCCT (sugars e5 d10 e5, PS) |  |  | 64% | 
CGCGCAGGACCCCGGAGTAG (sugars e5 d10 e5, PS) |  |  | 74% | 
CCTCTCCTGTTTGATGGGTA (sugars e5 d10 e5, PS) | 78% and 85% and 87% | 91% and 78% and 88% |  | 
GGAAAGGCACAGGCTTTGGG (sugars e5 d10 e5, PS) | 57% and 66% | 92% and 97% |  | 
TCCAGGACCCTGGACATGAT (sugars e5 d10 e5, PS) |  |  | 50% | 
GAAGGCACCCAGGCCCATGA (sugars e5 d10 e5, PS) |  |  | 38% | 
GACAGCTGTGATGACTTCCC (sugars e5 d10 e5, PS) | 73% | 87% |  | 
GGAGCTCAGAGACTCAGCCG (sugars e5 d10 e5, PS) |  |  | 73% | 
AAAACAGGGTACAACTCTCT (sugars e5 d10 e5, PS) | 73% and 59% | 91% and 87% |  | 
CCACCACCTAGAACAGGGCA (sugars e5 d10 e5, PS) |  |  | 55% | 
CCAAGCAGGAGCTGGACAGA (sugars e5 d10 e5, PS) |  |  | 19% | 
TGAGGCCCTTCAGCTTGTGC (sugars e5 d10 e5, PS) |  |  | 49% | 
GATTCAAATCTGTGTGACCT (sugars e5 d10 e5, PS) | 64% and 83% | 89% and 92% |  | 
GCCAGGCCCCTTCTGAAGAG (sugars e5 d10 e5, PS) |  |  | 36% | 
TTTCTTATCTTCAATCCTCA (sugars e5 d10 e5, PS) | 56% | 90% |  | 
AGGTAAGGCCGTATGCCTGG (sugars e5 d10 e5, PS) |  |  | 72% | 
GGCAGATAACCACAGCGATA (sugars e5 d10 e5, PS) | 75% | 84% |  | 
GTCCTGCAGTTTCAGGACTA (sugars e5 d10 e5, PS) |  |  | 54% | 
TCAGCAGGTTGTGTGTCTTC (sugars e2 d13 e5, PS) |  |  | 57% | 
